Source: patent EP0589484A1, “1,2-Ethanediol derivative and salt thereof, process for producing the same, and cerebral function-improving agent comprising the same” (TOYAMA CHEMICAL CO., LTD., priority 1989, dated 1990)
Structures can show the parent of a compound that is named as a salt.

These molecules were tested on ddY male mice (assay: Acute toxicity). Settings: 50 mg/kg intravenously, group of 3 ddY male mice.
Format: in vivo, mouse
Excerpt: A test compound dissolved in physiological saline was intravenously administered to a group of 3 ddY male mice (5-6 weeks old) to examine the acute toxicity of the test compound.
With `CN(C)CCOCC(O)c1ccc(O)cc1.Cl` (centres unmarked) [Compound No. 170, 1-(4-hydroxyphenyl)-2-[2-(N,N-dimethylamino)ethoxy]ethanol hydrochloride] the Acute toxicity was “no death case”. `OC(COCCN1CCOCC1)c1ccccc1` (centres unmarked) [compound 8] was tested, and the Acute toxicity was “no death case”. For `Cc1cccc(C(O)COCCN2CCCC2=O)c1` (centres unmarked) [compound 25], the Acute toxicity was “no death case”. For `COc1ccc(C(O)COCCN(C)C)cc1` (centres unmarked) [compound 44], the Acute toxicity was “no death case”. For `CN(C)CCOCC(O)c1ccc2c(c1)OCO2` (centres unmarked) [compound 52], the Acute toxicity was “no death case”. `CN(C)CCOCC(O)c1cccc(Oc2ccccc2)c1` (centres unmarked) [compound 53] was tested, and the Acute toxicity was “no death case”. `OC(COCC1CN(Cc2ccccc2)CCO1)c1ccc(Oc2ccccc2)cc1` (centres unmarked) [compound 147] was tested, and the Acute toxicity was “no death case”. In the case of `OCC1CCCN1CCOCC(O)c1ccccc1` (centres unmarked) [compound 159], the Acute toxicity was “no death case”. For `CN(CCOCC(O)c1ccccc1)C(=O)C1CCC(=O)N1` (centres unmarked) [compound 160], the Acute toxicity was “no death case”.

These molecules were tested on ddY female mouse (assay: Effect of test compound on hypoxia (antihypoxic activity)). Settings: po, 100 mg/kg orally, placed in chamber (4% oxygen, 96% nitrogen) after 1 hour from the administration, survival time relative to control, read-out: Antihypoxic activity (%).
Format: in vivo
Description: A test compound dissolved in physiological saline (100 mg/kg) was orally administered to a ddY female mouse (5-6 weeks old, each group consisting of 10 mice). After 1 (or 30 minutes*) hour from the administration, each mouse was placed in a 300-ml glass chamber, and a gas mixture consisting of 4% of oxygen and 96% of nitrogen was passed through the chamber at a rate of 5 liters/min. A time from the start of gas passing to the death of each mouse was measured.
To a control mice group was orally administered only physiological saline.
The antihypoxic activity of the test compound was calculated from the following formula: [formula]
`OC(COCCN1CCCCC1)c1cccc(Cl)c1` (centres unmarked) [compound 36] gave a response vs control in vivo at 100 mg/kg of 139%. With `CN(C)CCOCC(O)c1ccc(OCc2ccc(Cl)cc2)cc1` (centres unmarked) [compound 49] the response vs control in vivo at 100 mg/kg was 151%. `CN(C)CCOCC(O)c1ccc(-c2ccccc2)cc1` (centres unmarked) [compound 56] was tested, and the response vs control in vivo at 100 mg/kg was 182%. `Cc1cccc(C(O)COCC2CNCCO2)c1` (centres unmarked) [compound 152] was tested, and the response vs control in vivo at 100 mg/kg was 180%. For `OC(COCC1CNCCO1)c1cccc(Cl)c1` (centres unmarked) [compound 153], the response vs control in vivo at 100 mg/kg was 185%. In the case of `OC(COCCN1CCN(C(c2ccccc2)c2ccccc2)CC1)c1ccccc1` (centres unmarked) [compound 167], the response vs control in vivo at 100 mg/kg was 165%. `CC(=O)N(C)CCOCC(O)c1ccccc1` (centres unmarked) [compound 181] showed a response vs control in vivo at 100 mg/kg of 132%. `COC(COCCN(C)C)c1ccc(OCc2ccccc2)cc1` (centres unmarked) [compound 213] showed a response vs control in vivo at 100 mg/kg of 149%. Work on `Cn1cncc1COCC(O)c1ccc(OCc2ccccc2)cc1` (centres unmarked) [compound 215, 1-(4-Benzyloxyphenyl)-2-[(1-methylimidazol-5-yl)-methoxy]ethanol] yielded a response vs control in vivo at 100 mg/kg of 197%. With `CN(C)CCOCC(O)c1ccc(F)c2ccccc12` (centres unmarked) [compound 231] the response vs control in vivo at 100 mg/kg was 246%. For `Cc1ccc(C(O)COCCN(C)C)c2ccccc12` (centres unmarked) [compound 232], the response vs control in vivo at 100 mg/kg was 150%. `OC(COCCN1CCCCC1)c1ccc2ccccc2c1` (centres unmarked) [compound 238] gave a response vs control in vivo at 100 mg/kg of 123%. With `CCN(CC)CCOCC(O)c1cccc2ccccc12` (centres unmarked) [compound 243] the response vs control in vivo at 100 mg/kg was 159%.

Same assay, conditions: po, 0.5 h, 100 mg/kg orally, placed in chamber (4% oxygen, 96% nitrogen) after 30 minutes from the administration (values marked *), survival time relative to control, read-out: Antihypoxic activity (%)
In the case of `Cc1ccccc1C(O)COCCN(C)C` (centres unmarked) [compound 14], the response vs control in vivo at 100 mg/kg was 184%. With `CN(C)CCOCC(O)c1ccc(C(C)(C)C)cc1` (centres unmarked) [compound 19] the response vs control in vivo at 100 mg/kg was 168%. Molecule `Cc1cccc(C(O)COCCCCN(C)C)c1` (centres unmarked) [compound 23] has a response vs control in vivo at 100 mg/kg of 241%. Work on `Cc1cc(C)cc(C(O)COCCN(C)C)c1` (centres unmarked) [compound 27] yielded a response vs control in vivo at 100 mg/kg of 201%. With `CN(C)CCOCC(O)c1ccc(OCc2ccccn2)cc1` (centres unmarked) [compound 84] the response vs control in vivo at 100 mg/kg was 175%. For `CN(C)CCOCC(O)c1c(Cl)cccc1Cl` (centres unmarked) [compound 96], the response vs control in vivo at 100 mg/kg was 176%. Work on `COc1cc(C(O)COCCN(C)C)ccc1OCc1ccccc1` (centres unmarked) [compound 98] yielded a response vs control in vivo at 100 mg/kg of 164%. In the case of `OC(COCCN1CCOCC1)c1ccc(OCc2ccccc2)cc1` (centres unmarked) [compound 100], the response vs control in vivo at 100 mg/kg was 171%. For `NCCOCC(O)c1ccccc1` (centres unmarked) [compound 102], the response vs control in vivo at 100 mg/kg was 140%. With `Cc1cccc([C@@H](O)COCCN(C)C)c1` [compound 104] the response vs control in vivo at 100 mg/kg was 160%. With `OC(COCc1cccnc1)c1ccc(OCc2ccccc2)cc1` (centres unmarked) [compound 121] the response vs control in vivo at 100 mg/kg was 149%. For `OC(COCc1ccccn1)c1ccccc1` (centres unmarked) [compound 122], the response vs control in vivo at 100 mg/kg was 142%. `OC(COCc1ccncc1)c1ccccc1` (centres unmarked) [compound 123] showed a response vs control in vivo at 100 mg/kg of 140%. Molecule `Cc1cccc(C(O)COCc2cccnc2)c1` (centres unmarked) [compound 125] has a response vs control in vivo at 100 mg/kg of 172%. For `O[C@H](COCc1cccnc1)c1ccccc1` [compound 129], the response vs control in vivo at 100 mg/kg was 158%. `COc1ccc(C(O)COCc2cccnc2)cc1` (centres unmarked) [compound 131] showed a response vs control in vivo at 100 mg/kg of 167%. Molecule `O[C@@H](COCC1CNCCS1)c1ccccc1` (some centres unmarked) [compound 134] has a response vs control in vivo at 100 mg/kg of 201%. Work on `OC(COCc1c[nH]cn1)c1ccc(OCc2ccccc2)cc1` (centres unmarked) [compound 137] yielded a response vs control in vivo at 100 mg/kg of 163%. Molecule `OC(COCc1cccnc1)c1cccc(Oc2ccccc2)c1` (centres unmarked) [compound 139] has a response vs control in vivo at 100 mg/kg of 162%. `CC(=O)OC(COCCN(C)C)c1cccc(C)c1` (centres unmarked) [compound 180] was tested, and the response vs control in vivo at 100 mg/kg was 176%. `CC(=O)OC(COCCN(C)C)c1ccc(-c2ccccc2)cc1` (centres unmarked) [compound 187] was tested, and the response vs control in vivo at 100 mg/kg was 153%. `CC(=O)OC(COCc1cccnc1)c1ccccc1` (centres unmarked) [compound 188] showed a response vs control in vivo at 100 mg/kg of 144%. `CN1CCN(CCOCC(O)c2ccc(OCc3ccccc3)cc2)CC1` (centres unmarked) [compound 195] was tested, and the response vs control in vivo at 100 mg/kg was 176%. Work on `CN(CCOCC(O)c1ccc(OCc2ccccc2)cc1)C1CC1` (centres unmarked) [compound 203] yielded a response vs control in vivo at 100 mg/kg of 177%. For `OC(COCCNC1CC1)c1ccc(OCc2ccccc2)cc1` (centres unmarked) [compound 204], the response vs control in vivo at 100 mg/kg was 176%. Work on `Cc1cccc(C(O)COCCNC2CC2)c1` (centres unmarked) [compound 208] yielded a response vs control in vivo at 100 mg/kg of 242%. Work on `CC(C)(C)NCCOCC(O)c1ccccc1` (centres unmarked) [compound 211] yielded a response vs control in vivo at 100 mg/kg of 177%. In the case of `O[C@H](COC[C@@H]1CNCCO1)c1ccccc1` [compound 218, (1S,2'S)-1-phenyl-2-[(morpholin-2-yl)methoxy]ethanol oxalate], the response vs control in vivo at 100 mg/kg was 157%. `CC(CN(C)C)OCC(O)c1cccc2ccccc12` (centres unmarked) [compound 250] showed a response vs control in vivo at 100 mg/kg of 145%. Molecule `CN(C)CCOCC(O)c1ccc2c(c1)CCC2` (centres unmarked) [compound 252] has a response vs control in vivo at 100 mg/kg of 190%. For `CN1CCC=C(COCC(O)c2cccc3ccccc23)C1` (centres unmarked) [compound 271], the response vs control in vivo at 100 mg/kg was 150%. Molecule `OC(COCc1cccnc1)c1ccc2ccccc2c1` (centres unmarked) [compound 272] has a response vs control in vivo at 100 mg/kg of 185%. `CN(C)CCOCC(O)c1cccc2ccsc12` (centres unmarked) [compound 320] was tested, and the response vs control in vivo at 100 mg/kg was 212%. `OC(COCCN1CCCCC1)c1ccc2sccc2c1` (centres unmarked) [compound 330] was tested, and the response vs control in vivo at 100 mg/kg was 242%. Work on `CN(C)CCOCC(O)c1ccc2c(c1)CCS2` (centres unmarked) [compound 332] yielded a response vs control in vivo at 100 mg/kg of 230%. `CC(COCC(O)c1ccc2sccc2c1)N(C)C` (centres unmarked) [compound 338] was tested, and the response vs control in vivo at 100 mg/kg was 144%. `OC(COCc1cccnc1)c1ccc2occc2c1` (centres unmarked) [compound 339, 1-(benzo[b]furan-5-yl)-2-(pyridin-3-yl-methxoy)ethanol] showed a response vs control in vivo at 100 mg/kg of 131%. In the case of `OC(COCc1cccnc1)c1ccc2sccc2c1` (centres unmarked) [compound 340], the response vs control in vivo at 100 mg/kg was 163%. Work on `OC(COCC1CNCCO1)c1ccc2sccc2c1` (centres unmarked) [compound 343] yielded a response vs control in vivo at 100 mg/kg of 160%. For `CN1CCCC(COCC(O)c2ccc3sccc3c2)C1` (centres unmarked) [compound 344], the response vs control in vivo at 100 mg/kg was 268%. With `CN1CCC=C(COCC(O)c2ccc3sccc3c2)C1` (centres unmarked) [compound 345] the response vs control in vivo at 100 mg/kg was 185%. For `OC(COCCNC1CC1)c1ccc2sccc2c1` (centres unmarked) [compound 348], the response vs control in vivo at 100 mg/kg was 251%. For `CN1CCN(CCOCC(O)c2ccc3sccc3c2)CC1` (centres unmarked) [compound 349], the response vs control in vivo at 100 mg/kg was 209%. In the case of `OC(COCCNC12CC3CC(CC(C3)C1)C2)c1ccc2sccc2c1` (centres unmarked) [compound 353], the response vs control in vivo at 100 mg/kg was 132%. `NCCOCC(O)c1ccc2sccc2c1` (centres unmarked) [compound 357, 1-(benzo[b]thiophen-5-yl)-2-(2-aminoethoxy)ethanol 1/2 fumarate] was tested, and the response vs control in vivo at 100 mg/kg was 189%. Work on `OC(COCc1c[nH]cn1)c1ccc2sccc2c1` (centres unmarked) [compound 358, 1-(benzo[b]thiophen-5-yl)-2-[(imidazolyl)methoxy]ethanol] yielded a response vs control in vivo at 100 mg/kg of 211%. With `CN(C)CCOCC(O)c1ccc2[nH]ccc2c1` (centres unmarked) [compound 365] the response vs control in vivo at 100 mg/kg was 155%. Molecule `OC(COCCCNC1CC1)c1ccc2sccc2c1` (centres unmarked) [compound 383] has a response vs control in vivo at 100 mg/kg of 293%. Work on `OC(COCCCN1CCCCC1)c1ccc2sccc2c1` (centres unmarked) [compound 387] yielded a response vs control in vivo at 100 mg/kg of 228%. Work on `OC(COCCN1CCN(Cc2ccccc2)CC1)c1ccc2occc2c1` (centres unmarked) [compound 394, dihydrochloride] yielded a response vs control in vivo at 100 mg/kg of 241%.

Same assay, conditions: po, 0.5 h, read-out: Antihypoxic activity (%)
`CN1CCN(CCOCC(O)c2cccc3ccccc23)CC1` (centres unmarked) [compound 259, 2-[2-(4-methylpiperazin-1-yl)ethoxy]-1-(1-naphthyl)ethanol dihydrochloride] was tested, and the response vs control in vivo at 100 mg/kg was 155%. In the case of `CN(C)CCOCC(O)c1cccc2cccc([N+](=O)[O-])c12` (centres unmarked) [compound 289, 2-[2-(N,N-dimethylamino)ethoxy]-1-(8-nitro-1-naphthyl)ethanol oxalate], the response vs control in vivo at 100 mg/kg was 157%. Molecule `CNCCOCC(O)c1ccc2sccc2c1` (centres unmarked) [compound 347, 1-(benzo[b]thiophen-5-yl)-2-(N-methylaminoethoxy)ethanol hydrochloride] has a response vs control in vivo at 100 mg/kg of 162%. For `CCN(CC)CCOCC(O)c1ccc2sccc2c1` (centres unmarked) [compound 388, 2-[2-(N,N-diethylamino)ethoxy]-1-(benzo[b]thiophen-5-yl)ethanol hydrochloride], the response vs control in vivo at 100 mg/kg was 213%.

Same assay, conditions: po, 1 h, read-out: Antihypoxic activity (%)
Molecule `CNCCOCC(O)c1cccc2ccccc12` (centres unmarked) [compound 261, 2-[2-(N-methylamino)ethoxy]-1-(1-naphthyl)ethanol hydrochloride] has a response vs control in vivo at 100 mg/kg of 126%.
